Key:
ribonuclease A = biological target: T1, ribonuclease A (Bos taurus, UniProt P61823); assay: Inhibition of RNase A catalysis, fluorescence assay with 6-FAM~dArUdAdA~6-TAMRA; format: biochemical; details: solutions of low salt concentration
T1 construct: made in house
T1 sequence (P61823 27-150): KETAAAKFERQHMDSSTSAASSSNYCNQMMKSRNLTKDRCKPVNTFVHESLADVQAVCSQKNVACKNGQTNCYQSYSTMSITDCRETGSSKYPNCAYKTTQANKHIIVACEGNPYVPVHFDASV
Description: Inhibition of RNase A Catalysis—Inhibition of ribonucleolytic activity was measured by using either poly(C) or a fluorogenic substrate. The total cytidyl concentration of poly(C) was quantitated using ε=6,200 M^−1 cm^−1 at 268 nm (Yakovlev et al., 1992). The cleavage of poly(C) was monitored by the decrease in ultraviolet hypochromicity. The Δε value for this reaction calculated from the difference in molar absorptivity of the polymeric substrate and the mononucleotide cyclic phosphate product was 2,380 M^−1 cm^−1 at 250 nm (delCardayre and Raines, 1994). Assays were performed at 25° C. in 50 mM imidazole-HCl buffer, pH 6.0, containing NaCl (0.10 M), poly(C) (10 μM-1.5 mM), OVS (0-1.43 μM), and enzyme (1.0 nM).
Molar values of OVS were calculated by using the number average molecular mass (Mn) of 2,000 g/mol (value provided by the manufacturer and said to be measured by GPC, Polysciences.) It is possible that an oligomer of this size could bind two enzymes. Thus, the actual Ki values could be 2-fold higher. Kinetic parameters were determined from initial velocity data with the program DELTA-GRAPH 4.0 (DeltaPoint, Monterey, Calif.). For the fluorescence assay, the inhibition of ribonucleolytic activity was assessed at 25° C. in 2.0 ml of 50 mM imidazole-HCl buffer, pH 6.0, containing NaCl (0-0.25 M), 6-FAM˜dArUdAdA˜6-TAMRA (60 nM), and RNase A ([…]) as described previously (Kelemen et al., 1999; Park et al., 2001). Fluorescence (F) was measured using 493 and 515 nm as the excitation and emission wavelengths, respectively. The value of ΔF/Δt was measured for 3 min after the addition of RNase A. An aliquot of inhibitor (I) dissolved in the dissolved in the assay buffer was added next, and ΔF/Δt was measured in the presence of the inhibitor for 3 min. The concentration of inhibitor in the assay was doubled repeatedly in 3-min intervals. Excess RNase A was then added to the mixture to ensure that […] substrate had been cleaved prior to completion of the inhibition assay. Apparent changes in ribonucleolytic activity due to dilution were corrected by comparing values to an assay in which aliquots of buffer were added to the assay. Values of Ki were determined by non-linear least squares regression analysis of data fitted to Equation 1 (Kelemen et al., 1999; Park et al., 2001). ΔF/Δt=(ΔF/Δt)0(Ki/(Ki+[I])) (Eq. 1)
At 0 M NaCl, the enzyme concentration ([E] total) caused a significant depletion in inhibitor concentration, thus the data were fitted to Equation 2, which describes tight-binding inhibition (Henderson, 1972). ΔF/Δt=((ΔF/Δt)0/2[E]total){[(Ki+[I]−[E]total]^2+4Ki[E]total)^1/2−(Ki+[I]−[E]total)} (Eq. 2) In Equations 1 and 2, ( )F/ )t)0 was the ribonucleolytic activity prior to inhibitor addition.

RNase A = biological target: T2, RNase A (Bos taurus, UniProt P61823); details: similar buffer conditions with 0.10 M NaCl; cited from earlier work
T2 sequence (P61823 27-150): T1 sequence (P61823 27-150)

## C=CS(=O)(=O)O [vinylsulfonic acid]
Ribonuclease A
  inhibition of RNase A by buffer synthesis byproducts (words): Neither of these species was found to be a potent inhibitor
Ribonuclease A; listed as vinyl sulfonic acid
  inhibition of RNase A by buffer synthesis byproducts (words): None of these three materials was found, when tested, to exhibit inhibitory activity

## O=S(=O)(O)CCOCCS(=O)(=O)O [Diethanesulfonic acid ether, diethanesulfonic acid ether]
Ribonuclease A
  inhibition of RNase A by buffer synthesis byproducts (words): failed to inhibit RNase A
Ribonuclease A; listed as diethanesulfonic acid
  inhibition of RNase A by buffer synthesis byproducts (words): None of these three materials was found, when tested, to exhibit inhibitory activity

## Nc1ncnc2c1ncn2[C@@H]1O[C@H](COP(=O)(O)OP(=O)(O)O[C@H]2C[C@H](n3ccc(=O)[nH]c3=O)O[C@@H]2COP(=O)(O)O)[C@@H](OP(=O)(O)O)[C@H]1O [pdUppA-3′-p]
RNase A
  Ki: ~120 nM

## O=S(=O)(O)CCO [2-hydroxyethanesulfonic acid]
Ribonuclease A
  inhibition of RNase A by buffer synthesis byproducts (words): Neither of these species was found to be a potent inhibitor
Ribonuclease A; listed as 2-OH ethanesulfonic acid
  inhibition of RNase A by buffer synthesis byproducts (words): None of these three materials was found, when tested, to exhibit inhibitory activity
